Laboratory results published in PubChem BioAssay (NCI).
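Test compounds were applied to cells in 96-well plates for 48 hours at 5 doses. TGI: concentration producing complete growth inhibition.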

Test system: SF-295 CNS
Assay: NCI tumour cell line growth inhibition, 48 h

COc1ccc(-c2cc(=O)c3ccccc3[nH]2)c(OC)c1 and CC(C)Oc1ccc2c(c1)OCC1Cc3ccccc3OC21 (stereo not given) cannot be ordered by TGI: > 100 µM for the first, > 100 µM for the second.

O=c1[nH]nc(Cc2ccccc2)[nH]1 and Cc1nn(C(=O)Cc2ccccc2)c2c1C(c1ccc(N(C)C)cc1)SC(N)=N2 (stereo not given) cannot be ordered by TGI: > 100 µM for the first, > 100 µM for the second.

Going from N#Cc1c(-c2ccccc2)cc(Nc2cccc(C(F)(F)F)c2)n2c1nc1ccccc12 to CCn1c(SCC(=O)NNC(=S)Nc2ccc(C)cc2)nc2ccccc2c1=O, the TGI rises from 12.6 µM to > 100 µM.

c1csc(-c2cc(-c3cccs3)c(-c3ccsc3)s2)c1 and Cc1ccc(S(=O)(=O)OC(c2ccc(Cl)cc2Cl)C2OC(=O)c3ccccc32)cc1 (stereo not given) cannot be ordered by TGI: > 100 µM for the first, > 100 µM for the second.

CC(=O)N[C@@H](Cc1ccc(O)cn1)C(=O)NCc1cccc(Cl)c1 and COC(=O)C(NC(=O)c1ccccc1)c1ccco1 (stereo not given) cannot be ordered by TGI: > 100 µM for the first, > 100 µM for the second.

NC(=S)Nc1ccc(S(=O)(=O)Nc2ccc(S(N)(=O)=O)cc2)cc1 and CCOC(=O)C(Cc1cn(S(=O)(=O)c2ccccc2)c2ccccc12)(NC(C)=O)C(=O)OCC cannot be ordered by TGI: > 100 µM for the first, > 100 µM for the second.

With NNc1nncc2n[nH]nc12 the TGI was > 100 µM.

Test system: SF-539 CNS
Assay: NCI tumour cell line growth inhibition, 48 h

Compared with O=c1c2cc(S(=O)(=O)O)ccc2nc(COc2ccc(Oc3ccc(Cl)cc3Cl)cc2)n1-c1ccc(Cl)cc1Oc1c(Cl)cccc1Cl, Cc1ccc(S(=O)(=O)OC(c2ccc(Cl)cc2Cl)C2OC(=O)c3ccccc32)cc1 (stereo not given) is higher in TGI: 33.5 µM for the first, > 100 µM for the second.

C=C1CCC23CC(CC[C@@H]2[C@@]12C[C@@H](c1ccoc1)OC2=O)OC3=O (stereo not given in full) and CC(C)Oc1ccc2c(c1)OCC1Cc3ccccc3OC21 (stereo not given) cannot be ordered by TGI: > 100 µM for the first, > 100 µM for the second.

O=C1O/C(=C(/Cl)c2cccc3ccccc23)c2ccccc21 and COc1ccc(C2C3=C(Nc4ncnn42)c2ccccc2OC3c2ccccc2)cc1 (stereo not given) cannot be ordered by TGI: > 100 µM for the first, > 100 µM for the second.

First: COc1cc(OC)c2c(=O)c(OC)c(-c3ccc4c(c3)OCO4)oc2c1
Second: COc1ccc(-c2cc(=O)c3ccccc3[nH]2)c(OC)c1
The TGI of the first is lower: 44.1 µM for the first, > 100 µM for the second.

First: CC1(C)CC(=O)C(/C=N/c2nc(-c3ccccc3)cs2)=C(O)C1
Second: O=c1[nH]nc(Cc2ccccc2)[nH]1
The TGI of the first is lower: 64.7 µM for the first, > 100 µM for the second.

First: N#Cc1nc(C2=C(Cl)c3ccccc3OC2)[nH]c1C#N
Second: N#Cc1c(-c2ccccc2)cc(Nc2cccc(C(F)(F)F)c2)n2c1nc1ccccc12
The TGI of the first is 8.9-fold higher: 45.2 µM for the first, 5.06 µM for the second.

O=C1C=CC=C/C1=C1\N=C(c2ccccc2OCC(=O)c2ccc(Br)cc2)SS1 and Cc1nn(C(=O)Cc2ccccc2)c2c1C(c1ccc(N(C)C)cc1)SC(N)=N2 (stereo not given) cannot be ordered by TGI: > 100 µM for the first, > 100 µM for the second.

c1csc(-c2cc(-c3cccs3)c(-c3ccsc3)s2)c1 and CCn1c(SCC(=O)NNC(=S)Nc2ccc(C)cc2)nc2ccccc2c1=O cannot be ordered by TGI: > 100 µM for the first, > 100 µM for the second.

CC(=O)N[C@@H](Cc1ccc(O)cn1)C(=O)NCc1cccc(Cl)c1 and COC(=O)C(NC(=O)c1ccccc1)c1ccco1 (stereo not given) cannot be ordered by TGI: > 100 µM for the first, > 100 µM for the second.

NNc1nncc2n[nH]nc12 and CCOC(=O)C(Cc1cn(S(=O)(=O)c2ccccc2)c2ccccc12)(NC(C)=O)C(=O)OCC cannot be ordered by TGI: > 100 µM for the first, > 100 µM for the second.

Test system: SK-MEL-28 melanoma
Assay: NCI tumour cell line growth inhibition, 48 h

First: O=C1O/C(=C(/Cl)c2cccc3ccccc23)c2ccccc21
Second: N#Cc1c(-c2ccccc2)cc(Nc2cccc(C(F)(F)F)c2)n2c1nc1ccccc12
The TGI of the first is higher: > 100 µM for the first, 21.8 µM for the second.

COc1cc(OC)c2c(=O)c(OC)c(-c3ccc4c(c3)OCO4)oc2c1 and COc1ccc(-c2cc(=O)c3ccccc3[nH]2)c(OC)c1 cannot be ordered by TGI: > 100 µM for the first, > 100 µM for the second.

CC1(C)CC(=O)C(/C=N/c2nc(-c3ccccc3)cs2)=C(O)C1 and O=c1[nH]nc(Cc2ccccc2)[nH]1 cannot be ordered by TGI: > 100 µM for the first, > 100 µM for the second.

First: N#Cc1nc(C2=C(Cl)c3ccccc3OC2)[nH]c1C#N
Second: Cc1ccc(S(=O)(=O)OC(c2ccc(Cl)cc2Cl)C2OC(=O)c3ccccc32)cc1 (stereo not given)
The TGI of the first is lower: 56.8 µM for the first, > 100 µM for the second.

O=C1C=CC=C/C1=C1\N=C(c2ccccc2OCC(=O)c2ccc(Br)cc2)SS1 and Cc1nn(C(=O)Cc2ccccc2)c2c1C(c1ccc(N(C)C)cc1)SC(N)=N2 (stereo not given) cannot be ordered by TGI: > 100 µM for the first, > 100 µM for the second.

c1csc(-c2cc(-c3cccs3)c(-c3ccsc3)s2)c1 and CCn1c(SCC(=O)NNC(=S)Nc2ccc(C)cc2)nc2ccccc2c1=O cannot be ordered by TGI: > 100 µM for the first, > 100 µM for the second.

CC(=O)N[C@@H](Cc1ccc(O)cn1)C(=O)NCc1cccc(Cl)c1 and COC(=O)C(NC(=O)c1ccccc1)c1ccco1 (stereo not given) cannot be ordered by TGI: > 100 µM for the first, > 100 µM for the second.

NC(=S)Nc1ccc(S(=O)(=O)Nc2ccc(S(N)(=O)=O)cc2)cc1 and CCOC(=O)C(Cc1cn(S(=O)(=O)c2ccccc2)c2ccccc12)(NC(C)=O)C(=O)OCC cannot be ordered by TGI: > 100 µM for the first, > 100 µM for the second.

With NNc1nncc2n[nH]nc12 the TGI was > 100 µM.

Test system: TK-10 renal
Assay: NCI tumour cell line growth inhibition, 48 h

O=c1c2cc(S(=O)(=O)O)ccc2nc(COc2ccc(Oc3ccc(Cl)cc3Cl)cc2)n1-c1ccc(Cl)cc1Oc1c(Cl)cccc1Cl and Cc1ccc(S(=O)(=O)OC(c2ccc(Cl)cc2Cl)C2OC(=O)c3ccccc32)cc1 (stereo not given) cannot be ordered by TGI: > 100 µM for the first, > 100 µM for the second.

C=C1CCC23CC(CC[C@@H]2[C@@]12C[C@@H](c1ccoc1)OC2=O)OC3=O (stereo not given in full) and CC(C)Oc1ccc2c(c1)OCC1Cc3ccccc3OC21 (stereo not given) cannot be ordered by TGI: > 100 µM for the first, > 100 µM for the second.

Compared with O=C1O/C(=C(/Cl)c2cccc3ccccc23)c2ccccc21, N#Cc1c(-c2ccccc2)cc(Nc2cccc(C(F)(F)F)c2)n2c1nc1ccccc12 is lower in TGI: > 100 µM for the first, 17.8 µM for the second.

COc1cc(OC)c2c(=O)c(OC)c(-c3ccc4c(c3)OCO4)oc2c1 and COc1ccc(-c2cc(=O)c3ccccc3[nH]2)c(OC)c1 cannot be ordered by TGI: > 100 µM for the first, > 100 µM for the second.

CC1(C)CC(=O)C(/C=N/c2nc(-c3ccccc3)cs2)=C(O)C1 and O=c1[nH]nc(Cc2ccccc2)[nH]1 cannot be ordered by TGI: > 100 µM for the first, > 100 µM for the second.

N#Cc1nc(C2=C(Cl)c3ccccc3OC2)[nH]c1C#N and CCn1c(SCC(=O)NNC(=S)Nc2ccc(C)cc2)nc2ccccc2c1=O cannot be ordered by TGI: > 100 µM for the first, > 100 µM for the second.

O=C1C=CC=C/C1=C1\N=C(c2ccccc2OCC(=O)c2ccc(Br)cc2)SS1 and Cc1nn(C(=O)Cc2ccccc2)c2c1C(c1ccc(N(C)C)cc1)SC(N)=N2 (stereo not given) cannot be ordered by TGI: > 100 µM for the first, > 100 µM for the second.

c1csc(-c2cc(-c3cccs3)c(-c3ccsc3)s2)c1 and COC(=O)C(NC(=O)c1ccccc1)c1ccco1 (stereo not given) cannot be ordered by TGI: > 100 µM for the first, > 100 µM for the second.

CC(=O)N[C@@H](Cc1ccc(O)cn1)C(=O)NCc1cccc(Cl)c1 and CCOC(=O)C(Cc1cn(S(=O)(=O)c2ccccc2)c2ccccc12)(NC(C)=O)C(=O)OCC cannot be ordered by TGI: > 100 µM for the first, > 100 µM for the second.

NC(=S)Nc1ccc(S(=O)(=O)Nc2ccc(S(N)(=O)=O)cc2)cc1 and NNc1nncc2n[nH]nc12 cannot be ordered by TGI: > 100 µM for the first, > 100 µM for the second.

Test system: UO-31 renal
Assay: NCI tumour cell line growth inhibition, 48 h

Compared with O=c1c2cc(S(=O)(=O)O)ccc2nc(COc2ccc(Oc3ccc(Cl)cc3Cl)cc2)n1-c1ccc(Cl)cc1Oc1c(Cl)cccc1Cl, Cc1ccc(S(=O)(=O)OC(c2ccc(Cl)cc2Cl)C2OC(=O)c3ccccc32)cc1 (stereo not given) is 2.6-fold higher in TGI: 37 µM for the first, 95.6 µM for the second.

C=C1CCC23CC(CC[C@@H]2[C@@]12C[C@@H](c1ccoc1)OC2=O)OC3=O (stereo not given in full) and CC(C)Oc1ccc2c(c1)OCC1Cc3ccccc3OC21 (stereo not given) cannot be ordered by TGI: > 100 µM for the first, > 100 µM for the second.

O=C1O/C(=C(/Cl)c2cccc3ccccc23)c2ccccc21 and COc1ccc(C2C3=C(Nc4ncnn42)c2ccccc2OC3c2ccccc2)cc1 (stereo not given) cannot be ordered by TGI: > 100 µM for the first, > 100 µM for the second.

COc1cc(OC)c2c(=O)c(OC)c(-c3ccc4c(c3)OCO4)oc2c1 and COc1ccc(-c2cc(=O)c3ccccc3[nH]2)c(OC)c1 cannot be ordered by TGI: > 100 µM for the first, > 100 µM for the second.

CC1(C)CC(=O)C(/C=N/c2nc(-c3ccccc3)cs2)=C(O)C1 and O=c1[nH]nc(Cc2ccccc2)[nH]1 cannot be ordered by TGI: > 100 µM for the first, > 100 µM for the second.

N#Cc1nc(C2=C(Cl)c3ccccc3OC2)[nH]c1C#N and CCn1c(SCC(=O)NNC(=S)Nc2ccc(C)cc2)nc2ccccc2c1=O are within 1.5-fold of each other in TGI: 59.9 µM for the first, 55.3 µM for the second.

O=C1C=CC=C/C1=C1\N=C(c2ccccc2OCC(=O)c2ccc(Br)cc2)SS1 and Cc1nn(C(=O)Cc2ccccc2)c2c1C(c1ccc(N(C)C)cc1)SC(N)=N2 (stereo not given) cannot be ordered by TGI: > 100 µM for the first, > 100 µM for the second.

c1csc(-c2cc(-c3cccs3)c(-c3ccsc3)s2)c1 and COC(=O)C(NC(=O)c1ccccc1)c1ccco1 (stereo not given) cannot be ordered by TGI: > 100 µM for the first, > 100 µM for the second.

First: CC(=O)N[C@@H](Cc1ccc(O)cn1)C(=O)NCc1cccc(Cl)c1
Second: CCOC(=O)C(Cc1cn(S(=O)(=O)c2ccccc2)c2ccccc12)(NC(C)=O)C(=O)OCC
The TGI of the first is higher: > 100 µM for the first, 55.8 µM for the second.

NC(=S)Nc1ccc(S(=O)(=O)Nc2ccc(S(N)(=O)=O)cc2)cc1 and NNc1nncc2n[nH]nc12 cannot be ordered by TGI: > 100 µM for the first, > 100 µM for the second.
